Measured values as given in PubChem BioAssay (NCI).
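At the GI50, growth is halved. TGI: concentration producing complete growth inhibition.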

Columns and labels:
Experiment in all cases: DTP human tumour cell line panel, 384-well format
EKVX NSCLC = test system: EKVX NSCLC
HOP-62 NSCLC = test system: HOP-62 NSCLC
UACC-62 melanoma = test system: UACC-62 melanoma
NCI-H322M lung = test system: NCI-H322M lung
U251 glioblastoma = test system: U251 glioblastoma
NCI-H23 lung = test system: NCI-H23 lung
DU-145 prostate = test system: DU-145 prostate
M14 melanoma = test system: M14 melanoma
OVCAR-4 ovarian = test system: OVCAR-4 ovarian
RPMI-8226 leukemia = test system: RPMI-8226 leukemia
HOP-92 NSCLC = test system: HOP-92 NSCLC
SR leukemia = test system: SR leukemia
COLO 205 colon = test system: COLO 205 colon

Question: With C[C@H]1C[C@@H](n2c(Nc3ccc(OC(F)(F)F)cc3)nc3cc(CCC(=O)O)ccc32)CC(C)(C)C1 as the compound, how does the GI50 (EKVX NSCLC) read?
Answer: 14.6 µM

Question: What about the TGI (EKVX NSCLC) of the same compound?
Answer: 27.9 µM

Question: What about the GI50 (HOP-62 NSCLC) of the same compound?
Answer: 12.2 µM

Question: And the TGI (HOP-62 NSCLC)?
Answer: 24.7 µM

Question: And the GI50 (UACC-62 melanoma)?
Answer: 15.2 µM

Question: And the TGI (UACC-62 melanoma)?
Answer: 28.6 µM

Question: What about the GI50 (NCI-H322M lung) of the same compound?
Answer: 17 µM

Question: What about the TGI (NCI-H322M lung) of the same compound?
Answer: 30.9 µM

Question: And the GI50 (U251 glioblastoma)?
Answer: 9.69 µM

Question: What about the TGI (U251 glioblastoma) of the same compound?
Answer: 22.5 µM

Question: And the GI50 (NCI-H23 lung)?
Answer: 14.6 µM

Question: And the TGI (NCI-H23 lung)?
Answer: 27.9 µM

Question: What about the GI50 (DU-145 prostate) of the same compound?
Answer: 11.8 µM

Question: And the TGI (DU-145 prostate)?
Answer: 24.2 µM

Question: And the GI50 (M14 melanoma)?
Answer: 15.4 µM

Question: What about the TGI (M14 melanoma) of the same compound?
Answer: 28.9 µM

Question: What about the GI50 (OVCAR-4 ovarian) of the same compound?
Answer: 13.1 µM

Question: What about the TGI (OVCAR-4 ovarian) of the same compound?
Answer: 25.9 µM

Question: What about the GI50 (RPMI-8226 leukemia) of the same compound?
Answer: 4.46 µM

Question: And the TGI (RPMI-8226 leukemia)?
Answer: 11.4 µM

Question: And the GI50 (HOP-92 NSCLC)?
Answer: 16 µM

Question: And the TGI (HOP-92 NSCLC)?
Answer: 29.5 µM

Question: And the GI50 (SR leukemia)?
Answer: 7 µM

Question: What about the TGI (SR leukemia) of the same compound?
Answer: 20 µM

Question: And the GI50 (COLO 205 colon)?
Answer: 17.5 µM

Question: And the TGI (COLO 205 colon)?
Answer: 31.5 µM
